Target: T1, human RORgT (Homo sapiens, UniProt P51449)
T1 construct: expressed in transfected cells
T1 sequence (P51449 267-516): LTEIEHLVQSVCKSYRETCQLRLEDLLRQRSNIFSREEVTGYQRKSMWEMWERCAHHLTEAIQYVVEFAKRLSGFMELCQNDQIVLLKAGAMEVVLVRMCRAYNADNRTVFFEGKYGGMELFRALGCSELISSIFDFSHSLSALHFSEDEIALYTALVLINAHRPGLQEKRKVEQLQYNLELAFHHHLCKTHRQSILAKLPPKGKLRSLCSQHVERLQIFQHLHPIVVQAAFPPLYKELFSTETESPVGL
Assay: RORgT Gal4 Luciferase Reporter Gene Assay
Type: cell-based
Details: engineered Jurkat cells overexpressing RORgT (LBD or full length) fused with Gal4 Luc reporter; 18 hours at 37° C.; luminescence
Method in brief: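 Jurkat cells expressing Gal4 Luc with either RORgT LBD (aa267-516) or full-length human RORgT, 10,000 cells/well, treated with compound (40 µM to 0.67 nM final, 3-fold dilutions) for 18 h at 37° C. Steady-Glo luminescence read; inhibition of constitutive activity as % signal-window reduction relative to a control compound.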

| SMILES | EC50 |
| --- | --- |
| CC(=O)N1CCC(C(=O)N2CC[C@@]3(S(=O)(=O)c4ccc(F)cc4)c4ccc(OCc5cc(F)ccc5Cl)cc4CC[C@@H]23)CC1 [Example 174, 1-{4-[(3aR,9bR)-7-[(2-chloro-5-fluorophenyl)methoxy]-9b-(4-fluorobenzenesulfonyl)-1H,2H,3H,3aH,4H,5H,9bH-benzo[e]indole-3-carbonyl]piperidin-1-yl}ethan-1-one] | 26 nM |
| O=C(C1CCS(=O)(=O)CC1)N1CC[C@@]2(S(=O)(=O)c3ccc(F)cc3)c3ccc(OCc4cc(F)c(F)cc4Cl)cc3CC[C@@H]12 [Example 152, 4-[(3aR,9bR)-7-[(2-chloro-4,5-difluorophenyl)methoxy]-9b-(4-fluorobenzenesulfonyl)-1H,2H,3H,3aH,4H,5H,9bH-benzo[e]indole-3-carbonyl]-1λ^6-thiane-1,1-dione] | 15 nM |
| CC(=O)N1CCC(C(=O)N2CC[C@@]3(S(=O)(=O)c4ccc(F)cc4)c4ccc(OCc5cc(F)c(F)cc5Cl)cc4CC[C@@H]23)CC1 [Example 219, 1-{4-[(3aR,9bR)-7-[(2-chloro-4,5-difluorophenyl)methoxy]-9b-(4-fluorobenzenesulfonyl)-1H,2H,3H,3aH,4H,5H,9bH-benzo[e]indole-3-carbonyl]piperidin-1-yl}ethan-1-one] | 53 nM |
| CN1CCC(C(=O)N2CC[C@@]3(S(=O)(=O)c4ccc(F)cc4)c4ccc(OCc5cc(Cl)ccc5Cl)cc4CC[C@@H]23)CC1 [Example 204, 4-[(3aR,9bR)-7-[(2,5-dichlorophenyl)methoxy]-9b-(4-fluorobenzenesulfonyl)-1H,2H,3H,3aH,4H,5H,9bH-benzo[e]indole-3-carbonyl]-1-methylpiperidine] | 76 nM |
| O=C(CN1CCS(=O)(=O)CC1)N1CC[C@@]2(S(=O)(=O)c3ccc(F)cc3)c3ccc(OCc4cc(F)c(F)cc4Cl)cc3CC[C@@H]12 [Example 221, 4-{2-[(3aR,9bR)-7-[(2-chloro-4,5-difluorophenyl)methoxy]-9b-(4-fluorobenzenesulfonyl)-1H,2H,3H,3aH,4H,5H,9bH-benzo[e]indol-3-yl]-2-oxoethyl}-1λ^6-thiomorpholine-1,1-dione] | 34 nM |
| CN1CCC(C(=O)N2CC[C@@]3(S(=O)(=O)c4ccc(F)cc4)c4ccc(OCc5c(F)cccc5C(F)(F)F)cc4CC[C@@H]23)CC1 [Example 184, 4-[(3aR,9bR)-7-{[2-fluoro-6-(trifluoromethyl)phenyl]methoxy}-9b-(4-fluorobenzenesulfonyl)-1H,2H,3H,3aH,4H,5H,9bH-benzo[e]indole-3-carbonyl]-1-methylpiperidine] | 68 nM |
| O=C(C1CCS(=O)(=O)C1)N1CC[C@@]2(S(=O)(=O)c3ccccc3)c3ccc(OCc4c(Cl)cccc4Cl)cc3CC[C@@H]12 (stereo partly drawn) [Example 59, 3-[(3aR,9bR)-9b-(benzenesulfonyl)-7-[(2,6-dichlorophenyl)methoxy]-1H,2H,3H,3aH,4H5H,9bH-benzo[e]indole-3-carbonyl]-1λ^6-thiolane-1,1-dione] | 16 nM |
| CS(=O)(=O)N1CC(NC(=O)N2CC[C@@]3(S(=O)(=O)c4ccccc4)c4ccc(OCc5c(Cl)cccc5Cl)cc4CC[C@@H]23)C1 [Example 85, (3aR,9bR)-9b-(benzenesulfonyl)-7-[(2,6-dichlorophenyl)methoxy]-N-(1-methanesulfonylazetidin-3-yl)-1H,2H,3H,3aH,4H,5H,9bH-benzo[e]indole-3-carboxamide] | 18 nM |
| O=C(C1CCS(=O)(=O)CC1)N1CC[C@@]2(S(=O)(=O)c3ccccc3)c3ccc(OCc4ccccc4Cl)cc3CC[C@@H]12 [Example 127, 4-[(3aR,9bR)-9b-(benzenesulfonyl)-7-[(2-chlorophenyl)methoxy]-1H,2H,3H,3aH,4H,5H,9bH-benzo[e]indole-3-carbonyl]-1λ^6-thiane-1,1-dione] | 12 nM |
| C[C@]1(C(=O)O)CC[C@H](C(=O)N2CC[C@@]3(S(=O)(=O)c4ccc(F)cc4)c4ccc(OCc5c(F)cccc5C(F)(F)F)cc4CC[C@@H]23)CC1 [Example 25, (1r,4r)-4-[(3aR,9bR)-7-{[2-fluoro-6-(trifluoromethyl)phenyl]methoxy}-9b-(4-fluorobenzenesulfonyl)-1H,2H,3H,3aH,4H,5H,9bH-benzo[e]indole-3-carbonyl]-1-methylcyclohexane-1-carboxylic acid] | 20 nM |
| O=C(CN1CCCCS1(=O)=O)N1CC[C@@]2(S(=O)(=O)c3ccccc3)c3ccc(OCc4c(Cl)cccc4Cl)cc3CC[C@@H]12 [Example 64, 2-{2-[(3aR,9bR)-9b-(benzenesulfonyl)-7-[(2,6-dichlorophenyl)methoxy]-1H,2H,3H,3aH,4H,5H,9bH-benzo[e]indol-3-yl]-2-oxoethyl}-1λ^6,2-thiazinane-1,1-dione] | 921 nM |
| O=C(CN1CCS(=O)(=O)CC1)N1CC[C@@]2(S(=O)(=O)c3ccc(F)cc3)c3ccc(OCc4cc(F)ccc4Cl)cc3CC[C@@H]12 [Example 180, 4-{2-[(3aR,9bR)-7-[(2-chloro-5-fluorophenyl)methoxy]-9b-(4-fluorobenzenesulfonyl)-1H,2H,3H,3aH,4H,5H,9bH-benzo[e]indol-3-yl]-2-oxoethyl}-1λ^6-thiomorpholine-1,1-dione] | 21 nM |

Next, values leading:

| EC50 | SMILES |
| --- | --- |
| 9.9 nM | NC(=O)N1CCC(C(=O)N2CC[C@@]3(S(=O)(=O)c4ccc(F)cc4)c4ccc(OCc5cc(F)c(F)cc5Cl)cc4CC[C@@H]23)CC1 [Example 210, 4-[(3aR,9bR)-7-[(2-chloro-4,5-difluorophenyl)methoxy]-9b-(4-fluorobenzenesulfonyl)-1H,2H,3H,3aH,4H,5H,9bH-benzo[e]indole-3-carbonyl] piperidine-1-carboxamide] |
| 8.2 nM | O=C1CC[C@@H](C(=O)N2CC[C@@]3(S(=O)(=O)c4ccc(F)cc4)c4ccc(OCc5c(F)cccc5C(F)(F)F)cc4CC[C@@H]23)N1Cc1ccc(F)cc1 [Example 28, (5S)-5-[(3aR,9bR)-7-{[2-fluoro-6-(trifluoromethyl)phenyl]methoxy} -9b-(4-fluorobenzenesulfonyl)-1H,2H,3H,3aH,4H,5H,9bH-benzo[e]indole-3-carbonyl]-1-[(4-fluorophenyl)methyl]pyrrolidin-2-one] |
| 8.5 nM | O=C(C1CCS(=O)(=O)CC1)N1CC[C@@]2(S(=O)(=O)c3ccccc3)c3ccc(OCc4c(Cl)cccc4Cl)cc3CC[C@@H]12 [Example 126, 4-[(3aR,9bR)-9b-(benzenesulfonyl)-7-[(2,6-dichlorophenyl)methoxy]-1H,2H,3H,3aH,4H,5H,9bH-benzo[e]indole-3-carbonyl]-1λ^6-thiane-1,1-dione] |
| 1.8 nM | O=C(C1CCC(B(O)O)CC1)N1CC[C@@]2(S(=O)(=O)c3ccc(F)cc3)c3ccc(OCc4c(F)cccc4C(F)(F)F)cc3CC[C@@H]12 (stereo partly drawn) [Example 14, (4-((3aR,9bR)-7-((2-fluoro-6-(trifluoromethyl)benzyl)oxy)-9b-((4-fluorophenyl)sulfonyl)-2,3,3a,4,5,9b-hexahydro-1H-benzo[e]indole-3-carbonyl)cyclohexyl)boronic acid] |
| 8.8 nM | CS(=O)(=O)N1CCC(C(=O)N2CC[C@@]3(S(=O)(=O)c4ccccc4)c4ccc(OCc5c(F)cccc5Cl)cc4CC[C@@H]23)CC1 [Example 137, 4-[(3aR,9bR)-9b-(benzenesulfonyl)-7-[(2-chloro-6-fluorophenyl)methoxy]-1H,2H,3H,3aH,4H,5H,9bH-benzo[e]indole-3-carbonyl]-1-methanesulfonylpiperidine] |
| 12 nM | N#CCCN1C(=O)CC[C@H]1C(=O)N1CC[C@@]2(S(=O)(=O)c3ccc(F)cc3)c3ccc(OCc4cc(F)c(F)cc4Cl)cc3CC[C@@H]12 [Example 158, 3-[(2S)-2-[(3aR,9bR)-7-[(2-chloro-4,5-difluorophenyl)methoxy]-9b-(4-fluorobenzenesulfonyl)-1H,2H,3H,3aH,4H,5H,9bH-benzo[e]indole-3-carbonyl]-5-oxopyrrolidin-l-yl]propanenitrile] |
| 10 nM | O=C(O)[C@H]1CC[C@H](C(=O)N2CC[C@@]3(S(=O)(=O)c4ccc(F)cc4)c4ccc(Cc5ccccc5)cc4CC[C@@H]23)CC1 [Example 34, (1r,4r)-4-[(3aR,9bR)-7-benzyl-9b-(4-fluorobenzenesulfonyl)-1H,2H,3H,3aH,4H,5H,9bH-benzo[e]indole-3-carbonyl]cyclohexane-1-carboxylic acid] |
| 10 nM | CS(=O)(=O)N1CCC(C(=O)N2CC[C@@]3(S(=O)(=O)c4ccccc4)c4ccc(OCc5c(Cl)cccc5Cl)cc4CC[C@@H]23)CC1 [Example 60, 4-[(3aR,9bR)-9b-(benzenesulfonyl)-7-[(2,6-dichlorophenyl)methoxy]-1H,2H,3H,3aH,4H,5H,9bH-benzo[e]indole-3-carbonyl]-1-methanesulfonylpiperidine] |
| 2.8 nM | NC(=O)[C@H]1CC[C@H](C(=O)N2CC[C@@]3(S(=O)(=O)c4ccccc4)c4ccc(OCc5c(Cl)cccc5Cl)cc4CC[C@@H]23)CC1 [Example 106, (1r,4r)-4-[(3aR,9bR)-9b-(benzenesulfonyl)-7-[(2,6-dichlorophenyl)methoxy]-1H,2H,3H,3aH,4H,5H,9bH-benzo[e]indole-3-carbonyl]cyclohexane-1-carboxamide] |
| 11 nM | N#CCCN1C(=O)CC[C@H]1C(=O)N1CC[C@@]2(S(=O)(=O)c3ccc(F)cc3)c3ccc(OCc4c(Cl)cccc4Cl)cc3CC[C@@H]12 [Example 156, 3-[(2S)-2-[(3aR,9bR)-7-[(2,6-dichlorophenyl)methoxy]-9b-(4-fluorobenzenesulfonyl)-1H,2H,3H,3aH,4H,5H,9bH-benzo[e]indole-3-carbonyl]-5-oxopyrrolidin-1-yl]propanenitrile] |

Source: patent US20230295087A1, “AGONISTS OF ROR GAMMAt” (BRISTOL-MYERS SQUIBB COMPANY, priority 2019, published 2023)
